# In ChEMBL document CHEMBL1149389 (Bioorg Med Chem Lett, 2006):
# How the values were obtained:
# [1] = target: D(3) dopamine receptor (Homo sapiens, UniProt P35462); experiment: Binding affinity to human cloned dopamine D3 receptor
# [2] = target: D(2) dopamine receptor (Homo sapiens, UniProt P14416); experiment: Binding affinity to human cloned dopamine D2 receptor
# [3] = system: Liver microsomes; experiment: Metabolic stability in rat liver microsomes; type: ADME, Microsome
# [4] = system: Liver microsomes; experiment: Metabolic stability in human liver microsomes; type: ADME, Microsome
# [5] = Permeability across Caco-2 cell membrane; type: ADME, cell-based; settings: human
# [6] = system: Rattus norvegicus; experiment: Antagonism of agonist-induced huddling deficits in orally administered rat; type: functional; settings: po
# Sequence of D(3) dopamine receptor (P35462 whole entry): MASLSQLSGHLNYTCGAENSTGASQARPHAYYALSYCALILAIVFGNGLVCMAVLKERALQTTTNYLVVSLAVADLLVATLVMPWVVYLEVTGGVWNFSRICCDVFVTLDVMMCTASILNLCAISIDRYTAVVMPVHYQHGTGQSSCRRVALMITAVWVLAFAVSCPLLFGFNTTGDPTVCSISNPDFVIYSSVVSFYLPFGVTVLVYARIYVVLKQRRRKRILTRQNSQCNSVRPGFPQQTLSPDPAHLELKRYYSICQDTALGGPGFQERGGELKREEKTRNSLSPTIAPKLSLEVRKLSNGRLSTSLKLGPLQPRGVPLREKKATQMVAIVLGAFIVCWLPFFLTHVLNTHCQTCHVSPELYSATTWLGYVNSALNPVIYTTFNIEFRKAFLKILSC
# Sequence of D(2) dopamine receptor (P14416 whole entry): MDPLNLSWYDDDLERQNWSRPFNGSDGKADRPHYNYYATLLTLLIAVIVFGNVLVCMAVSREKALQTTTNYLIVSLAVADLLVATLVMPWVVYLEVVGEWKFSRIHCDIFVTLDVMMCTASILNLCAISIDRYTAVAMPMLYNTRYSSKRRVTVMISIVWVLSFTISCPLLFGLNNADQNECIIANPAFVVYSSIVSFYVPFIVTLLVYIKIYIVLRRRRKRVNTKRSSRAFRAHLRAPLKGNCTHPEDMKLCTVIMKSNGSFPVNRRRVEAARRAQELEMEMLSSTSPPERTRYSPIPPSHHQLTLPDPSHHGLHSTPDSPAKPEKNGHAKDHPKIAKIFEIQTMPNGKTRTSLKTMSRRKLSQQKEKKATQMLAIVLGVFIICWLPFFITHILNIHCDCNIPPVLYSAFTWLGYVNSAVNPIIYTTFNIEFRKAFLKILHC
Structure (SMILES),Ki [1],Ki [2],also measured
Cc1cn(CCCCN2CCN(c3cc(C(F)(F)F)nc(C(C)(C)C)n3)CC2)c(=O)n(C)c1=O,10.4 nM,356 nM,–
CC(C)(C)c1nc(N2CCN(CCCCn3cc(C#N)c(=O)[nH]c3=O)CC2)cc(C(F)(F)F)n1,–,473 nM,–
Cc1ccn(CCCCN2CCN(c3cc(C(F)(F)F)nc(C(C)(C)C)n3)CC2)c(=O)n1,–,307 nM,–
CCOc1ccn(CCCCN2CCN(c3cc(C(F)(F)F)nc(C(C)(C)C)n3)CC2)c(=O)n1,–,290 nM,–
CC(C)(C)c1nc(N2CCN(CCCCn3ccc(C4CCCCC4)nc3=O)CC2)cc(C(F)(F)F)n1,–,302 nM,–
CC(C)(C)c1nc(N2CCN(CCCCn3cc(C(F)(F)F)c(=O)[nH]c3=O)CC2)cc(C(F)(F)F)n1,–,646 nM,–
CC(C)(C)c1ccn(CCCCN2CCN(c3cc(C(F)(F)F)nc(C(C)(C)C)n3)CC2)c(=O)n1,–,216 nM,–
CC(C)(C)c1nc(N2CCN(CCCCn3cc(Cl)c(=O)[nH]c3=O)CC2)cc(C(F)(F)F)n1,–,220 nM,–
CC(C)(C)c1nc(N2CCN(CCCCn3ccc(N4CCC4)nc3=O)CC2)cc(C(F)(F)F)n1,4.4 nM,82.1 nM,–
CC(C)(C)c1nc(N2CCN(CCCSc3nccc(O)n3)CC2)cc(C(F)(F)F)n1 [ABT-925],–,351 nM,–
CC(C)(C)c1nc(N2CCN(CCCCn3ccc(N4CCCCC4)nc3=O)CC2)cc(C(F)(F)F)n1,3.4 nM,89.4 nM,–
CC(C)(C)c1nc(N2CCN(CCCCn3ccc(-c4ccccc4)nc3=O)CC2)cc(C(F)(F)F)n1,–,168 nM,–
CC(C)(C)c1nc(N2CCN(CCCCn3ccc(=O)[nH]c3=O)CC2)cc(C(F)(F)F)n1,–,196 nM,–
Cn1c(=O)ccn(CCCCN2CCN(c3cc(C(F)(F)F)nc(C(C)(C)C)n3)CC2)c1=O,11.8 nM,610 nM,–
CC(C)(C)c1nc(N2CCN(CCCCn3ccc(C4CC4)nc3=O)CC2)cc(C(F)(F)F)n1,3.7 nM,155 nM,–
CC(C)(C)c1nc(N2CCN(CCCCn3cccnc3=O)CC2)cc(C(F)(F)F)n1,12.9 nM,447 nM,–
CC(C)(C)c1nc(N2CCN(CCCCn3ccc(C4CCC4)nc3=O)CC2)cc(C(F)(F)F)n1,–,273 nM,–
CCc1cn(CCCCN2CCN(c3cc(C(F)(F)F)nc(C(C)(C)C)n3)CC2)c(=O)[nH]c1=O,1.7 nM,148 nM,–
Cc1cn(CCCCN2CCN(c3cc(C(F)(F)F)nc(C(C)(C)C)n3)CC2)c(=O)[nH]c1=O,–,320 nM,Stability [3]: > 97%; Stability [4]: > 97%; Papp [5]: 1.94 ×10⁻⁶ cm/s; ED50 [6]: 6.1 mg/kg
CC(C)(C)c1nc(N2CCN(CCCCn3cc(F)c(=O)[nH]c3=O)CC2)cc(C(F)(F)F)n1,–,602 nM,–
